Consider 15 compounds from US5232937A, “Derivatives of N-phenylbenzamide with anti-ulcer and anti-allergy” (Rotta Research Laboratorium SpA., priority 1989, dated 1993).

Structures are written as SMILES. Like-named read-outs stand apart in the source and are kept apart here. Bounds are passed on as bounds.

As usually defined, the ED50 is the midpoint of the dose-response relation. What is called inhibition is the share of the control response that was lost under treatment. The EC50 is the concentration needed to bring the measured effect to its halfway point.

Assay [1] has as its system gastric acid secretion induced by pentagastrin. The experiment in a line: Anti-secretive activity, gastric acid secretion stimulated with pentagastrin (Lai method, modified). The class given is in vivo. Particulars: Rattus norvegicus, iv, 1 h; I.V.; rats; pentagastrin 30 mcg/kg/h; read-out: ED50, antagonistic activity towards secretion induced by pentagastrin. How it is done:
(§1) The anti-secretive activities were determined in rats with the use of male animals weighing approximately 200 g, anaesthetised with urethane. Gastric secretion was stimulated with pentagastrin, histamine or cabachol.
(§2) After tracheotomy, cannulae were inserted in the aesophagus and the duodenum. These were perfused with a tepid solution (37° C.) which was passed through the stomach at a constant flow rate of 1 ml/minute by means of a peristaltic pump. After stabilisation for 20 minutes, the stimulant, dissolved in a physiological solution, was perfused for 120 minutes at the dose indicated in Table 1 in a volume of 0.95 ml/hour. After 60 minutes of perfusion (base stimulation) the product under test was administered intravenously (I.V.) in a bolus and the perfusion of the stimulant was continued for a further 60 minutes. The acid secretion was recorded continuously as a function of time.
(§3) The activity of the product was evaluated as a percentage reduction in the acid secreted after the administration of the product against the base acidity measured in the first 60 minutes of collection which was in the presence of the stimulant alone.

Assay [2] has as its system gastric acid secretion induced by carbachol. The assay is described as follows: Anti-secretive activity, gastric acid secretion stimulated with carbachol (Lai method, modified). The class given is in vivo. Conditions: Rattus norvegicus, iv, 1 h; I.V.; rats; carbachol 30 mcg/kg/h; read-out: ED50, antagonistic activity towards secretion induced by carbachol. How it is done: as §1, §2, §3

Assay [3] concerns gastric acid secretion induced by histamine. The assay is described as follows: Anti-secretive activity, gastric acid secretion stimulated with histamine (Lai method, modified). The class given is in vivo. Conditions: Rattus norvegicus, iv, 1 h; I.V.; rats; histamine 2.3 mg/kg/h; read-out: ED50, antagonistic activity towards secretion induced by histamine. The protocol: as §1, §2, §3

Assay [4] relates to passive cutaneous anaphylaxis reaction. The experiment in a line: Passive cutaneous anaphylaxis (PCA) in rats, modified Goose and Blair method. Particulars: for ED50: Rattus norvegicus, iv, 0.5 h, I.V., rats. The assay is classed as in vivo, rat. The protocol: Male rats weighing approximately 400 g were treated with 10 mg/kg of grade V egg albumen dissolved in 1 ml of a physiological solution by I.M. and intraperitoneal (I.P.) routes. With one mg of Freund's complete adjuvent solution. 13 days after sensitisation, the animals were killed under […] anaesthesia, the blood was taken and the serum was kept at -70° C. after its titre of IgE specific to egg albumen had been assayed. On the basis of type, 2 intradermal injections (i.d.) of 0.1 ml of the antiserum, titrated and suitably diluted were given into the shaved backs of 200 g male rats at a time -24h.
The products under test were administered I.V. 20 minutes of the antigen. The animals were killed 30 minutes after the challenge, the skin of the back was turned inside out and the larger and smaller diameters of each blemish were measured. In practice the response of each animal was evaluated as the average of four diameters.

For assay [5], the system named is ulcer caused by stress. The experiment in a line: Cytoprotective activity, ulcer caused by stress (containment). Particulars: Rattus norvegicus, im, 5 h, read-out: ED50, cytoprotective activity, ulcer caused by stress. The assay is classed as in vivo. The protocol:
(§4) 1 if the length of the necrotic area is 2 mm
(§5) 2 if the length of the necrotic area is between 2 and 4 mm
(§6) 3 if the length of the necrotic area is 4 mm
(§7) 5 if the length of the area is 4 mm with a perforated ulcer.
(§8) A lesion index is then obtained by adding the number of lesions multiplied by their respective points.
Male rats weighing approximately 150 g which had been starved for 24 hours were imprisoned in individual cylindrical cages and immersed up to the xiphoid process in cool water kept thermostatically at 19° C. The compounds were administrated intramuscularly (I.M.) 15 minutes before the start of the test.
5 hours after the start of their containment, the animals were killed, their stomachs were removed and a quantitative evaluation was then carried out as described above.

The test system of assay [6] is actively-sensitised guinea-pig lung fragments (histamine release). The assay is described as follows: Anaphylaxis in vitro, histamine release from actively sensitised guinea-pig lung fragments (modified Broklehurst method). The assay is classed as cell-based. Particulars: for inhibition at 10 µg/mL / inhibition at 30 µg/mL / inhibition at 100 µg/mL / inhibition at 300 µg/mL / EC50: Cavia porcellus; for inhibition at 10 µg/mL: 10 mcg/ml; for inhibition at 10 µg/mL / inhibition at 30 µg/mL / inhibition at 100 µg/mL / inhibition at 300 µg/mL: read-out: % inhibition of anaphylactic histamine release; for inhibition at 30 µg/mL: 30 mcg/ml; for inhibition at 100 µg/mL: 100 mcg/ml; for inhibition at 300 µg/mL: 300 mcg/ml; for EC50: guinea-pig lung fragments in vitro, read-out: EC50, anaphylactic histamine release. How it is done: Male guinea pigs weighing approximately 250 g were sensitised with […] of grade V egg albumen dissolved in 1 ml of physiological solution and administered (1 ml/kg) I.P. and subcutaneously (S.C.). After three weeks the animals were killed under ethereal anaesthesia by bleeding. The lungs were removed and immersed in Tyrode solution at 4° C. Homogeneous fragments approximately 2 mm long were cut and divided into test pieces containing approximately 400 mg of tissue and […] of Tyrode. The samples were preincubated at 37° C. for 15 minutes with the compounds under test dissolved in 0.1 of Tyrode and incubated for a further 20 minutes at 37° C. The reaction was stopped by cooling in ice.
0.8 ml of the supernatant liquid were treated with perchloric acid and centrifuged to remove the proteins. The supernatant liquid was then made alkaline with 5N NaOH, the histamine was extracted with n-butanol and, after suitable dilution with n-heptane, was extracted again in dilute HCl.
O-phthalaldehyde was added to the samples and their fluorescence was measured with a fluorimeter at 450 mu after activation at 360 mu.
The histamine concentration in the samples was obtained from a standard straight-line graph in the range 50-800 ng/ml of histamine.

Assay [7] relates to ulcer caused by 25% NaCl. The assay is described as follows: Cytoprotective activity, ulcer caused by 25% NaCl. The class given is in vivo. Conditions: Rattus norvegicus, iv, 1 h, read-out: ED50, cytoprotective activity, ulcer caused by 25% NaCl. The protocol:
(§9) The drugs under test were administered intravenously 15 minutes before the irritant. […] It consists of the assignment of arbitrary points according to the number and gravity of the lesions in accordance with the following criterion:
as §4, §5, §6, §7, §8

Assay [8] relates to ulcer caused by ethanol. The experiment in a line: Cytoprotective activity, ulcer caused by ethanol. The assay is classed as in vivo, rat. Conditions: for ED50: Rattus norvegicus, iv, 1 h, read-out: ED50, cytoprotective activity, ulcer caused by ethanol; for protective activity (in words): ulcer models of Table 2 (ethanol, 25% NaCl, stress). The protocol: as §9, §4, §5, §6, §7, §8

[9] abbreviates: I.M., rats, 15 minutes before the test.
Setting [10] is: I.V., rats, 15 minutes before NaCl.
Setting [11] is: I.V., rats, 15 minutes before ethanol.

As for `O=C(O)c1cc(NC(=O)c2ccc([N+](=O)[O-])cc2)cc(C(=O)O)c1` [Compound 2, N-(3,5-dicarboxy)phenyl-4-nitrobenzamide], the ED50 amounted to 91 mg/kg in assay [1], 68 mg/kg in assay [2] and 109 mg/kg in assay [3].

Take `O=C(O)c1cc(NC(=O)c2ccc(Cl)cc2)cc(C(=O)O)c1` [Compound 3, N-(3,5-dicarboxy)phenyl-4-chlorobenzamide]: the ED50 in assay [1] was 115 mg/kg; in assay [2], 104 mg/kg; in assay [3] it was 108 mg/kg.

Take `Cc1ccc(C(=O)Nc2cc(C(=O)O)cc(C(=O)O)c2)cc1` [Compound 4, N-(3,5-dicarboxy)phenyl-4-methylbenzamide]: the results for the ED50 in assay [1], in assay [2] and in assay [3] were 189 mg/kg, 216 mg/kg and more than 250 mg/kg, respectively.

Consider `COc1ccc(C(=O)Nc2cc(C(=O)O)cc(C(=O)O)c2)cc1` [Compound 5, N-(3,5-dicarboxy)phenyl-4-methoxybenzamide], for which the ED50 in assay [1] was 223 mg/kg; in assay [2], more than 250 mg/kg; in assay [3] it was 240 mg/kg.

For `O=C(O)c1cc(NC(=O)c2ccc([N+](=O)[O-])c(O)c2)cc(C(=O)O)c1` [Compound 6, N-(3,5-dicarboxy)phenyl-3-hydroxy-4-nitrobenzamide], the ED50 in assay [1] came out at 210 mg/kg; in assay [2], 186 mg/kg; in assay [3], 205 mg/kg.

With `O=C(O)c1cc(NC(=O)c2ccc(O)c(O)c2)cc(C(=O)O)c1` [Compound 7, N-(3,5-dicarboxy)phenyl-3,4-di-hydroxybenzamide], the values for the ED50 in assay [1], in assay [2] and in assay [3] were 97 mg/kg, 90 mg/kg and 102 mg/kg, respectively.

Turning to `COc1ccc(C(=O)Nc2cc(C(=O)O)cc(C(=O)O)c2)cc1OC` [Compound 8, N-(3,5-dicarboxy)phenyl-3,4-dimethoxybenzamide], the ED50 came out at 208 mg/kg in assay [1], 188 mg/kg in assay [2] and 222 mg/kg in assay [3].

Regarding `COc1cc(C(=O)Nc2cc(C(=O)O)cc(C(=O)O)c2)ccc1[N+](=O)[O-]` [Compound 9, N-(3,5-dicarboxy)phenyl-3-methoxy-4-nitrobenzamide], the ED50 in assay [1] was 88 mg/kg; in assay [2], 88 mg/kg; in assay [3] it was 100 mg/kg.

With `N#Cc1ccc(C(=O)Nc2ccc(-c3nn[nH]n3)cc2)cc1` [Compound 10, N-°4-(5-tetrazolyl)e-phenyl-4-cyanobenzamide], the ED50 in assay [1] came to 42 mg/kg; in assay [2], 39 mg/kg; in assay [3] it was 45 mg/kg.

Consider `O=C(O)c1cc(NC(=O)c2ccc(-c3nn[nH]n3)cc2)cc(C(=O)O)c1` [Compound 11, N-(3,5-dicarboxy)phenyl-4-(5-tetrazolyl)-benzamide], for which the “% inhibition of passive cutaneous anaphylaxis” value (from here on “% inhibition”) in assay [4] (50 mg/kg I.V.) stood at 53.3%; in assay [4] (100 mg/kg I.V.), 66%; in assay [4] (150 mg/kg I.V.) it was 74.7%. For the same compound, the ED50 in assay [4] came to 42.6 mg/kg; in assay [5] (setting [9]) it was 65 mg/kg; in assay [7] (setting [10]), 29 mg/kg; in assay [1], 33 mg/kg; in assay [2], 50 mg/kg; in assay [3], 41 mg/kg. For the same compound, the ED50 in assay [8] (setting [11]) stood at 7 mg/kg. Further, the inhibition at 10 µg/mL in assay [6] stood at 11.8%. Moreover, the inhibition at 30 µg/mL in assay [6] came out at 27.2%. Moreover, the inhibition at 100 µg/mL in assay [6] turned out to be 42.4%. For the same compound, the inhibition at 300 µg/mL in assay [6] is 53.3%. Besides, the EC50 in assay [6] is 216 µg/mL. The “activity in the in vitro anaphylaxis model relative to DSCG” value in assay [6] (compared with DSCG) is 10-15 times.

Take `N#Cc1ccc(C(=O)Nc2cc(C(N)=O)cc(C(=O)O)c2)cc1` [Compound 13, N-(3-carboxy-5-carbamoyl)phenyl-4-cyanobenzamide]: the values for the ED50 in assay [1], in assay [2] and in assay [3] were 68 mg/kg, 65 mg/kg and 73 mg/kg, respectively.

Take `NC(=O)c1cc(NC(=O)c2ccc(-c3nn[nH]n3)cc2)cc(C(=O)O)c1` [Compound 14, N-(3-carboxy-5-carbamoyl)phenyl-4-(5-tetrazolyl)-benzamide]: the ED50 in assay [1] came to 51 mg/kg; in assay [2], 48 mg/kg; in assay [3], 48 mg/kg.

As to `O=C(O)c1cc(=O)c2c(OCC(O)COc3cccc4oc(C(=O)O)cc(=O)c34)cccc2o1` [DSCG, Di-sodium chromoglycate, reference compound], the “% inhibition” value in assay [4] (50 mg/kg I.V.) turned out to be 16.0%. Besides, the “% inhibition” value in assay [4] (100 mg/kg I.V.) worked out at 22.1%. Also, the “% inhibition” value in assay [4] (150 mg/kg I.V.) is 57.5%. This compound showed an ED50 in assay [4] of 153 mg/kg. For the same compound, in assay [6] (10-300 mcg/ml), the “dose relation of activity (in words)” value is recorded as “poorly dose-related” and the “inhibitory effect on the release of histamine, all doses tested” value was not above 50%. Moreover, in assay [6], the inhibition at 10 µg/mL is 6.8%, the inhibition at 30 µg/mL was 19.7%, the inhibition at 100 µg/mL was 17.8% and the inhibition at 300 µg/mL worked out at 41.2%. Moreover, the EC50 in assay [6] stood at 1460 µg/mL.

Turning to `CN1CCN(CC(=O)N2c3ccccc3C(=O)Nc3cccnc32)CC1` [PIRENZEPINE, pirenzepine, reference compound], the ED50 in assay [5] (setting [9]) was more than 75 mg/kg; in assay [7] (setting [10]), more than 50 mg/kg; in assay [8] (setting [11]), more than 50 mg/kg. Also, in assay [8], the “protective activity (in words)” value is “inactive”.

As for `CN/C(=N/CCSCc1nc[nH]c1C)NC#N` [[…], cimetidine, reference compound], the ED50 was more than 75 mg/kg in assay [5], more than 50 mg/kg in assay [7] and more than 50 mg/kg in assay [8]. Also, the “protective activity (in words)” value in assay [8] was “inactive”.
